Values after ≈ are worked out from the molar mass of the structure shown. Read-outs that look alike come from different tables or passages of the source.
What was measured:
[1] = Bioassay of amoxicillin from the ester; conditions: 20 mg. ester in 10 ml. of 50/50 acetone/pH 7.0 buffer
[2] = tested on: S. aureus; test: MIC against various organisms (Table I); type: cell-based; conditions: Staphylococcus aureus, third of three lines, read-out: minimum inhibitory concentration
[3] = tested on: S. aureus Smith; test: MIC in Nutrient Broth (Table III); type: cell-based; conditions: Staphylococcus aureus, S. aureus Smith (10^-4)
Description: (§1) Organism in Nutrient Broth
(§2) **Dilution of overnight broth culture

[4] = tested on: E. coli; test: MIC in Nutrient Broth (Table III); type: cell-based; conditions: Escherichia coli; E. coli (10^-4)
Description: as §1, §2

[5] = tested on: K. pneumoniae; test: MIC in Nutrient Broth (Table III); type: cell-based; conditions: Klebsiella pneumoniae
Description: as §1, §2

[6] = tested on: Pr. mirabilis; test: MIC in Nutrient Broth (Table III); type: cell-based; conditions: Proteus mirabilis; Pr. mirabilis (10^-4)
Description: as §1, §2

[7] = tested on: Ser. marcescens; test: MIC in Nutrient Broth (Table III); type: cell-based; conditions: Serratia marcescens; Ser. marcescens (10^-4)
Description: as §1, §2

[8] = tested on: Sal. enteritidis; test: MIC in Nutrient Broth (Table III); type: cell-based; conditions: Salmonella enterica; Sal. enteritidis (10^-4)
Description: as §1, §2

[9] = tested on: Ps. aeruginosa; test: MIC in Nutrient Broth (Table III); type: cell-based; conditions: Pseudomonas aeruginosa
Description: as §1, §2

[10] = tested on: Pr. morganii; test: MIC in Nutrient Broth (Table III); type: cell-based; conditions: Morganella morganii
Description: as §1, §2

[11] = tested on: E. coli Juhl; test: MIC in Nutrient Broth (Table III); type: cell-based; conditions: Escherichia coli; E. coli Juhl (10^-4)
Description: as §1, §2

[12] = tested on: S. aureus BX1633; test: MIC in Nutrient Broth (Table III); type: cell-based; conditions: Staphylococcus aureus
Description: as §1, §2

[13] = tested on: S. aureus Meth.-Res.; test: MIC in Nutrient Broth (Table III); type: cell-based; conditions: Staphylococcus aureus
Description: as §1, §2

[14] = tested on: Ent. cloacae; test: MIC in Nutrient Broth (Table III); type: cell-based; conditions: Enterobacter cloacae, Ent. cloacae (10^-4)
Description: as §1, §2

[15] = tested on: Ps. aeruginosa; test: MIC against various organisms (Table I); type: cell-based; conditions: Pseudomonas aeruginosa; Ps. aeruginosa; read-out: minimum inhibitory concentration
[16] = tested on: D. pneumoniae; test: MIC against various organisms (Table I); type: cell-based; conditions: Streptococcus pneumoniae; D. pneumoniae + 5% serum; read-out: minimum inhibitory concentration
[17] = in vivo; parameters: species or system mice; conditions: mouse, po, 50 mg/kg
[18] = in vivo
Procedure: (§3) Only the latter are biologically active per se. Also, both original ester and parent penicillin were measured.

[19] = tested on: Pr. mirabilis; test: MIC against various organisms (Table I); type: cell-based; conditions: Proteus mirabilis, read-out: minimum inhibitory concentration
[20] = tested on: Str. pyogenes; test: MIC against various organisms (Table I); type: cell-based; conditions: Streptococcus pyogenes; Str. pyogenes + 5% serum; read-out: minimum inhibitory concentration
[21] = tested on: K. pneumoniae; test: MIC against various organisms (Table I); type: cell-based; conditions: Klebsiella pneumoniae, K. pneumoniae, read-out: minimum inhibitory concentration
[22] = tested on: E. coli Juhl; test: MIC against various organisms (Table I); type: cell-based; conditions: Escherichia coli, read-out: minimum inhibitory concentration
[23] = tested on: Str. pyogenes; test: MIC in Nutrient Broth (Table III); type: cell-based; conditions: Streptococcus pyogenes, 10^-3 dilution of overnight broth culture, 45% AAB, 5% serum, 50% broth
Description: as §1
(§4) *45% AAB 5% serum 50% broth listed above,
as §2

[24] = tested on: Str. pneumoniae; test: MIC in Nutrient Broth (Table III); type: cell-based; conditions: Streptococcus pneumoniae, 10^-3 dilution of overnight broth culture, 45% AAB, 5% serum, 50% broth
Description: as §1, §4, §2

[25] = tested on: Pr. morganii; test: MIC against various organisms (Table I); type: cell-based; conditions: Morganella morganii; Pr. morganii; read-out: minimum inhibitory concentration
[26] = tested on: E. coli; test: MIC against various organisms (Table I); type: cell-based; conditions: Escherichia coli, read-out: minimum inhibitory concentration
[27] = Oral absorption in man, BL-P1780 Study 101; conditions: for Cmax: saliva
Procedure: as §3
Three formulations were each administered once orally to six (6) healthy adult male subjects in BL-P1780 Study 101 as follows:
A. BL-P1780, 500 mg. (of amoxicillin-equivalent activity) as two 250 mg. buffered tablets.
B. BL-P1780, 500 mg. (an amoxicillin-equivalent activity) as two 250 mg. buffered tablets with 3.5 g. sodium bicarbonate being taken five minutes prior to the adminstration of BL-P1780.
C. Amoxicillin, 500 mg. as two 250 mg. capsules.
1. To investigate the human safety and tolerance of single 500 mg. doses of BL-P1780.
2. To determine the effect of intragastric buffering with sodium bicarbonate on the absorption of BL-P1780.
3. To compare amoxicillin plasma and saliva concentrations and urinary excretion between BL-P1780 and amoxicillin.

[28] = tested on: S. aureus Smith; test: MIC against various organisms (Table I); type: cell-based; conditions: Staphylococcus aureus, read-out: minimum inhibitory concentration
[29] = tested on: Ser. marcescens; test: MIC against various organisms (Table I); type: cell-based; conditions: Serratia marcescens, read-out: minimum inhibitory concentration
[30] = tested on: Sal. enteritidis; test: MIC against various organisms (Table I); type: cell-based; conditions: Salmonella enterica, read-out: minimum inhibitory concentration
[31] = tested on: S. aureus BX1633; test: MIC against various organisms (Table I); type: cell-based; conditions: Staphylococcus aureus, read-out: minimum inhibitory concentration
[32] = tested on: S. aureus; test: MIC in Nutrient Broth (Table III); type: cell-based; conditions: Staphylococcus aureus; S. aureus+50% serum (10^-4)
Description: as §1, §2

[33] = K. pneumoniae (10^-4), first of two lines, read-out: MIC
[34] = BX1633, S. aureus BX1633 (10^-3), read-out: MIC
[35] = S. aureus Meth.-Res. (10^-3), 37° C., read-out: MIC
[36] = second of three lines, read-out: MIC
[37] = third of three lines, read-out: MIC
[38] = man, oral 500 mg., six subjects

COCOC(=O)[C@@H]1N2C(=O)[C@@H](NC(=O)[C@H](N)c3ccc(O)cc3)[C@H]2SC1(C)C [Example 5, methoxymethyl ester of amoxicillin]
bioassay of amoxicillin [1]: 1968 µg/mL | bioassay of amoxicillin, percent of theory [1]: about 110 % of theory

COCOC(=O)[C@@H]1N2C(=O)[C@@H](N3C(=O)[C@@H](c4ccc(O)cc4)NC3(C)C)[C@H]2SC1(C)C [Example 8, methoxymethyl 6-[D-(-)-2,2-dimethyl-4-(4-hydroxyphenyl)-5-oxo-1-imidazolyl]-penicillanate]
MIC [2]: > 125 µg/mL | MIC [3]: 0.13 µg/mL (≈ 0.289 µM) | MIC [4]: 32 µg/mL (≈ 71.2 µM) | MIC [5, 33]: 0.13 µg/mL (≈ 0.289 µM) | MIC ([5]; K. pneumoniae (10^-4), second of two lines, read-out: MIC): > 125 µg/mL | MIC [6]: 0.25 µg/mL (≈ 0.556 µM) | MIC [7]: > 125 µg/mL | MIC [8]: 1 µg/mL (≈ 2.22 µM) | MIC ([9]; Ps. aeruginosa (10^-4), read-out: MIC): > 125 µg/mL | MIC ([10]; Pr. morganii (10^-4), read-out: MIC): > 125 µg/mL | MIC [11]: 1 µg/mL (≈ 2.22 µM) | MIC ([12]; BX1633, S. aureus BX1633 (10^-2), read-out: MIC): > 125 µg/mL | MIC [12, 34]: 16 µg/mL (≈ 35.6 µM) | MIC ([13]; S. aureus Meth.-Res. (10^-3), 28° C., read-out: MIC): 63 µg/mL (≈ 140 µM) | MIC [13, 35]: 125 µg/mL (≈ 278 µM) | MIC ([14]; first of three lines, read-out: MIC): 125 µg/mL (≈ 278 µM) | MIC [14, 36]: 125 µg/mL (≈ 278 µM) | MIC [14, 37]: 63 µg/mL (≈ 140 µM) | MIC [15]: > 125 µg/mL | MIC [16]: 0.004 µg/mL | concentration at 0.5 h [17]: 4800 ng/mL | concentration at 1 h [17]: 3500 ng/mL | concentration at 2 h [17]: 1700 ng/mL | concentration at 3.5 h [17]: 700 ng/mL | tissue distribution of amoxicillin from BL-P1780 over that of ampicillin, amoxicillin or ampicillin from sarpicillin [18]: markedly improved tissue distribution | hydrolysis of the ester ([18]; po): hydrolyze eventually to their parent penicillins | MIC [19]: 0.16 µg/mL (≈ 0.356 µM) | MIC [20]: 0.004 µg/mL | MIC ([21]; first of two lines): 0.16 µg/mL (≈ 0.356 µM) | MIC ([21]; second of two lines): > 125 µg/mL | MIC [22]: 1 µg/mL (≈ 2.22 µM) | MIC [23]: 0.008 µg/mL (≈ 0.0178 µM) | MIC [24]: 0.008 µg/mL (≈ 0.0178 µM) | MIC [25]: 32 µg/mL (≈ 71.2 µM) | MIC [26]: 32 µg/mL (≈ 71.2 µM) | need of intragastric buffering for bioavailability or tissue distribution ([27]; in vivo, po): not necessary | MIC ([28]; S. aureus Smith + 50% serum): 0.06 µg/mL | MIC ([28]; S. aureus Smith): 0.06 µg/mL (≈ 0.133 µM) | MIC [29]: 32 µg/mL (≈ 71.2 µM) | MIC [30]: 0.13 µg/mL (≈ 0.289 µM) | MIC ([31]; BX1633, S. aureus BX1633, first of two lines): 125 µg/mL (≈ 278 µM) | MIC ([31]; BX1633, S. aureus BX1633, second of two lines): > 125 µg/mL

CC1(C)S[C@@H]2[C@H](NC(=O)[C@H](N)c3ccccc3)C(=O)N2[C@H]1C(=O)O [Sodium Ampicillin]
MIC [3]: 0.06 µg/mL | MIC [32]: 0.13 µg/mL | MIC [4]: 16 µg/mL | MIC [5]: 125 µg/mL | MIC [5, 33]: 0.5 µg/mL | MIC [6]: 0.25 µg/mL | MIC [7]: 32 µg/mL | MIC [8]: 0.13 µg/mL | MIC [9]: > 125 µg/mL | MIC [10]: > 125 µg/mL | MIC [11]: 2 µg/mL | MIC ([12]; BX1633): > 125 µg/mL | MIC [12, 34]: 32 µg/mL | MIC [13]: > 125 µg/mL | MIC [13, 35]: 32 µg/mL | MIC ([14]; first of three lines): > 125 µg/mL | MIC [14, 36]: 32 µg/mL | MIC [14, 37]: 63 µg/mL | MIC [23]: 0.008 µg/mL | MIC [24]: 0.016 µg/mL

CC1(C)S[C@@H]2[C@H](NC(=O)[C@H](N)c3ccc(O)cc3)C(=O)N2[C@H]1C(=O)O [amoxicillin, D-6-(p-hydroxy-α-aminophenylacetamido)penicillanic acid]
Cmax ([27]; human, po, 500 mg, maximum saliva amoxicillin level, man, oral 500 mg.): 60 ng/mL | Cmax ([27]; human, po, 500 mg, mean peak saliva amoxicillin level, man, oral 500 mg.): 30 ng/mL | dose excreted at 24 h ([27]; human, urine, po, 500 mg): 50.9% | time course of saliva amoxicillin levels ([27]; man, oral 500 mg.): delayed and erratic | subjects found to be slow absorbers [27, 38]: Two of the six subjects | subjects with detectable saliva amoxicillin levels [27, 38]: only 3 of the 6 subjects
